For data set [1], the system named is HCT-116. In words: Downregulation of cyclin E2 mRNA expression in human HCT116 cells after 12 hrs by RT-PCR method. The class given is functional, cell-based.
Data set [2] has as its system HCT-116. The data set can be described thus: Modulation of Skp2-p27 Axis in human HCT116 cells assessed as upregulation of p21 expression after 24 hrs by Western blot analysis. The class given is functional, cell-based.
In data set [3] the test system is HCT-116. The data set can be described thus: Downregulation of MCM5 gene expression in human HCT116 cells assessed as fold change at 15 uM incubated for 24 hrs by cDNA microarray analysis relative to control. It counts as functional.
Data set [4] concerns HCT-116. The data set can be described thus: Induction of cell cycle arrest in human HCT116 cells assessed as accumulation at G0/G1 phase at 5 uM incubated for 24 hrs by propidium iodide staining based flow cytometry (reference value: 54.7%). It counts as functional. (In general: Flow cytometry measures light scatter and fluorescence of single cells or particles in a stream.)

Data set [5] is described as follows: Toxicity in BALB/c nude mouse assessed as changes in body weight at 5 to 10 mg/kg, ip administered thrice a week for 3.5 weeks. It counts as organism-based. The settings on record: in vivo, 588 h.
The subject of data set [6] is HCT-116. In words: Induction of cell cycle arrest in human HCT116 cells assessed as accumulation at G2/M phase at 5 uM incubated for 24 hrs by propidium iodide staining based flow cytometry (reference value: 15.7%). It counts as functional.
Data set [7] concerns HCT-116. In words: Downregulation of MCM10 gene expression in human HCT116 cells assessed as fold change at 15 uM incubated for 24 hrs by cDNA microarray analysis relative to control. The class given is functional.
Data set [8] relates to HCT-116. In words: Induction of apoptosis in human HCT116 cells assessed as reduction in uncleaved full length caspase 8 level after 24 hrs by Western blot analysis. It counts as functional, cell-based. On the technique in general: A western blot detects proteins with antibodies after separation by electrophoresis.
Data set [9] concerns HCT-116. The data set can be described thus: Induction of cell cycle arrest in human HCT116 cells assessed as accumulation at S phase at 20 uM incubated for 24 hrs by propidium iodide staining based flow cytometry (reference value: 21.2%). It counts as functional.
The subject of another data set is A549. The data set can be described thus: Antiproliferative activity against human A549 cells after 72 hrs by sulforhodamine B assay. The class given is functional, cell-based. Conditions: A549, 72 h.
Another data set concerns SK-HEP1. In words: Antiproliferative activity against human SKHEP1 cells after 72 hrs by sulforhodamine B assay. The class given is functional, cell-based. Conditions: SK-HEP1, 72 h.
Data set [10] relates to HCT-116. The data set can be described thus: Antitumor activity against human HCT116 cells xenografted in BALB/c nude mouse assessed as tumor weight at 5 mg/kg, ip administered thrice a week for 3.5 weeks measured on last day (reference value: 100%). It counts as functional. (In xenograft studies the graft and the host belong to different species.)
The test system of data set [11] is HCT-116. In words: Induction of apoptosis in human HCT116 cells assessed as increase in cleaved caspase 7 level after 24 hrs by Western blot analysis. It counts as functional, cell-based.
Data set [12] deals with HCT-116. In words: Induction of cell cycle arrest in human HCT116 cells assessed as accumulation at S phase at 10 uM incubated for 18 hrs by propidium iodide staining based flow cytometry (reference value: 26.8%). The class given is functional.
The test system of data set [13] is HCT-116. The data set can be described thus: Modulation of Skp2-p27 Axis in human HCT116 cells assessed as upregulation of p27 expression after 24 hrs by Western blot analysis. The class given is functional, cell-based.

*1 amine or outer side, *2 acyl side, *3 side chain or, on linkers, in order; H or OH if unused. Where a SMILES comes first, the peptide text is derived from it. Bridges are numbered along the chain shown (N, C = ends). [ ]: non-standard residue; d: D form. Phe(3R-OH) = O=C([C@@H](N[*:1])[C@H](O[*:3])c1ccccc1)[*:2]; NMeTrp(4-OMe) = CN[C@@H](Cc1c[nH]c2cccc(OC)c12)C(=O)O; NMeT = CN[C@H](C(=O)O)[C@@H](C)O; NMeL = CN[C@@H](CC(C)C)C(=O)O; NMeV = CN[C@H](C(=O)O)C(C)C

By IC50 is commonly meant the midpoint of a concentration-inhibition curve. Higher therefore signals lower potency.

In the case of `CN[C@H](C(=O)N[C@H](C(=O)N[C@@H]1C(=O)N(C)[C@@H]([C@@H](C)O)C(=O)N[C@@H](C(C)C)C(=O)N(C)[C@@H](CC(C)C)C(=O)N[C@@H](C(C)C)C(=O)N(C)[C@@H](C(C)C)C(=O)N(C)[C@@H](Cc2c[nH]c3cccc(OC)c23)C(=O)N[C@@H](C(C)C)C(=O)N[C@@H]([C@H](O)c2ccccc2)C(=O)N[C@@H](C(C)C)C(=O)O[C@@H]1C)C(C)C)C(C)C` (H-[NMeV]VT[NMeT]V[NMeL]V[NMeV][NMeTrp(4-OMe)]V[Phe(3R-OH)]V; ester 3-C), the inhibition entry in the data set on HCT-116 [1] is “Dose-dependent effect”. The Activity result was “Dose-dependent effect” in the data set with HCT-116 [2]; 60.9% in the data set on HCT-116 [4]; “Non-Toxic” in [5]; 12.5% in the data set with HCT-116 [6]; “Dose-dependent effect” with HCT-116 [8]; 24.1% in the data set with HCT-116 [9]. Further, the Activity with HCT-116 [10] is 70.3%; in the data set with HCT-116 [11] it was “Dose-dependent effect”; in the data set with HCT-116 [12] it was 26.6%; in the data set on HCT-116 [13], “Dose-dependent effect”. Moreover, the “fold change (FC)” value in the data set with HCT-116 [3] is reported as 5.219; with HCT-116 [7], 4.889. Besides, the IC50 in the data set with A549 is 8.35 µM; in the data set on SK-HEP1, 8.21 µM.

Values taken from ChEMBL document CHEMBL4342450, “Antitumor Activity of Ohmyungsamycin A through the Regulation of the Skp2-p27 Axis and MCM4 in Human Colorectal Cancer Cells” (J Nat Prod, 2020).
